Drawing on BindingDB's records for patent US12084420 (Volastra Therapeutics, 2024), this text covers IC50 for twelve compounds.

The target of this assay is T1, Kinesin-like protein KIF18A (Homo sapiens, UniProt Q8NI77).
T1 sequence (Q8NI77 whole entry): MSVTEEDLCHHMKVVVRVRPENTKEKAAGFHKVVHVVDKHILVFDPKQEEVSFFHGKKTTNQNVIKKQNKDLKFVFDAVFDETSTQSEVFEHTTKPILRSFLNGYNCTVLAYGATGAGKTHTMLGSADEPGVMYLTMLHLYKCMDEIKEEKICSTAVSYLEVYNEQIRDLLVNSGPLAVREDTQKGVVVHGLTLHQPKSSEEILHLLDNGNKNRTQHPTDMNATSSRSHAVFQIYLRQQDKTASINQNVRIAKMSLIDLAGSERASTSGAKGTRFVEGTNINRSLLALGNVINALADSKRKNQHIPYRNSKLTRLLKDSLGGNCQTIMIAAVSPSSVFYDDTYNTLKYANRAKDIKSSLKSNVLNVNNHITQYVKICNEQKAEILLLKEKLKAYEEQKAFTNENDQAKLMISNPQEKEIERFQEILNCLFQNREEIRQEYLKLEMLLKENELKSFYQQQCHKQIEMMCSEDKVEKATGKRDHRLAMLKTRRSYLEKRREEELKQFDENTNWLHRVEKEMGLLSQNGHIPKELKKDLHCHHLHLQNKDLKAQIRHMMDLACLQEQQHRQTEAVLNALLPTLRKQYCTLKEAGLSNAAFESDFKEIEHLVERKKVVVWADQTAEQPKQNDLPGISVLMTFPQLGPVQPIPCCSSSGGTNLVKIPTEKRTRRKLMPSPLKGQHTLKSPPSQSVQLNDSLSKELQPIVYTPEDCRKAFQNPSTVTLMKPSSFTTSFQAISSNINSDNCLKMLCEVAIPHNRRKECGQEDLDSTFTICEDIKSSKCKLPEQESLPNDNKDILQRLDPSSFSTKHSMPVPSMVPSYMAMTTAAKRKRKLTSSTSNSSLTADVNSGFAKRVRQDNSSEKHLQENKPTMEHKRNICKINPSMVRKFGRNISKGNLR
Briefly: Inhibition of KIF18A Microtubule-Dependent ATPase Activity. On the procedure: Table 9: Test compounds were plated in a 3× dilution scheme in a 384-well plate. […] After incubation at room temperature for 30 min, 2.5 μL of microtubule mix was added [0.2 mg/mL pre-formed microtubules, 2.0 mM ATP in assay buffer], the plate was centrifuged for 30 s and then incubated at 28° C. for 60 min. 5 μL of Promega ADP-Glo Max R1 was added, the plate was centrifuged for 30 s, and the mixture incubated for 4 h at room temperature. 10 μL of Promega ADP-Glo Max R2 was added, the plate centrifuged for 30 s, and incubated for 60 min at room temperature. Luminescence was measured with an Envision plate reader, and % Inhibition was calculated for each well as: ([max−min]−[test−min])/[max−min]. IC50 values were calculated from concentration vs. % Inhibition data via a four-parameter variable slope model.
In general, IC50 refers to the concentration at which inhibition is half-maximal. Higher therefore signals lower potency. Take `CC(C)(CO)NS(=O)(=O)c1cccc(C(=O)N2CC3(CCC4(CC4)CC3)c3cc(NS(C)(=O)=O)ccc32)c1` [US12084420, Compound 220]: the IC50 came out at 16 nM.
Next, `CS(=O)(=O)Nc1ccc2c(c1)C1(CCC3(CC3)CC1)CN2C(=O)c1cccc(S(=O)(=O)NC2CC3CC3C2)c1` (configuration not stated) [US12084420, Compound 254]: 10 nM.
The figure for `CS(=O)(=O)Nc1ccc2c(c1)C1(CCC3(CC3)CC1)CN2C(=O)c1cccc(/C=N/N2CCCCC2)c1` [US12084420, Compound 318] is 930 nM; for `CC(C)(C)NS(=O)(=O)c1csc(C(=O)N2CC3(CCCCC3)c3cc(NS(C)(=O)=O)ccc32)c1` [US12084420, Compound 147] it is 43 nM.
The figure for `CCC(C)(C)NS(=O)(=O)c1cccc(C(=O)N2CC3(CCC4(CC4)CC3)c3cc(NS(C)(=O)=O)ccc32)c1` [US12084420, Compound 266] is 16 nM.
In turn, `CC(C)(C)NS(=O)(=O)c1cccc(C(=O)N2CC3(CCC4(CC4)CC3)c3cc(NS(=O)(=O)CCF)ccc32)c1` [US12084420, Compound 365] showed an IC50 of 13 nM.
With `O=C(c1cccc(S(=O)(=O)N2CCC(F)(F)CC2)c1)N1CC2(CCCC2)c2cc(NS(=O)(=O)CCO)ccc21` [US12084420, Compound 27], the IC50 stood at 83 nM.
Next, `CC(C)(C)NS(=O)(=O)c1cc(C(=O)N2CC3(CCCCC3)c3cc(NS(C)(=O)=O)ccc32)cs1` [US12084420, Compound 231]: 8.7 nM.
The figure for `C=C1CCC1NS(=O)(=O)c1cccc(C(=O)N2CC3(CCC4(CC4)CC3)c3cc(NS(C)(=O)=O)ccc32)c1` (configuration not stated) [US12084420, Compound 233] is 12 nM.
The figure for `Cn1nc(S(=O)(=O)NC(C)(C)C)cc1C(=O)N1CC2(CCCCC2)c2cc(NS(C)(=O)=O)ccc21` [US12084420, Compound 59] is 1000 nM; for `CS(=O)(=O)Nc1ccc2c(c1)C1(CCC3(CC3)CC1)CN2C(=O)c1cccc(S(=O)(=O)N2CCC(C(F)F)C2)c1` (configuration not stated) [US12084420, Compound 247] it is 21 nM.
In turn, `CC(C)(C)NS(=O)(=O)c1cc(C(=O)N2CC3(CCC4(CC4)CC3)c3cc(NS(C)(=O)=O)ccc32)co1` [US12084420, Compound 319] had an IC50 of 1200 nM.
